Measured values taken from PMC11301625, “Azobenzene-Based Photoswitchable Substrates for Advanced Mechanistic Studies of Model Haloalkane Dehalogenase Enzyme Family” (ACS Catalysis, 2024).
Where two headings read alike, the source gives them in different places. Blank lines part the entries; values can stand above or below the molecule they belong to.

How the values were obtained:
LinB [1] = target: T1, LinB (Sphingobium indicum, UniProt D4Z2G1); assay: global fit of stopped-flow fluorescence/absorbance and ITC; type: biochemical; details: 100 mM glycine pH 8.6, 37 °C
T1 construct: His-tagged, expressed in E. coli BL21(DE3), Ni-NTA purified; PDB 1MJ5 given for the docking model of the same protein
T1 sequence (D4Z2G1 2-296): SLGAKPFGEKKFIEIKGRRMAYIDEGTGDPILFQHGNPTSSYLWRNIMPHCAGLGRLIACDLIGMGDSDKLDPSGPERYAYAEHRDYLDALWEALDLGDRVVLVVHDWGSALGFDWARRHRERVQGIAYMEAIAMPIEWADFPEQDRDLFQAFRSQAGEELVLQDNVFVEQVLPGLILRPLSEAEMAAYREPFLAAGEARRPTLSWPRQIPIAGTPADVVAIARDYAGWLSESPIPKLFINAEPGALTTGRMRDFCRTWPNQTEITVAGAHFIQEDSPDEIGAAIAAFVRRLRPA
Description: global fit of stopped-flow fluorescence/absorbance and ITC on LinB

DmmA [2] = target: T2, DmmA (Lyngbya majuscula, UniProt Q6DND9); assay: as above; type: biochemical; details: 100 mM glycine pH 8.6, 37 °C; enzyme-product complex after isomerization (EP2); read-out: K5
T2 construct: gene curN; His-tagged, expressed in E. coli BL21(DE3), Ni-NTA purified; PDB 3U1T for the docking model of the same protein
T2 sequence (Q6DND9 25-341): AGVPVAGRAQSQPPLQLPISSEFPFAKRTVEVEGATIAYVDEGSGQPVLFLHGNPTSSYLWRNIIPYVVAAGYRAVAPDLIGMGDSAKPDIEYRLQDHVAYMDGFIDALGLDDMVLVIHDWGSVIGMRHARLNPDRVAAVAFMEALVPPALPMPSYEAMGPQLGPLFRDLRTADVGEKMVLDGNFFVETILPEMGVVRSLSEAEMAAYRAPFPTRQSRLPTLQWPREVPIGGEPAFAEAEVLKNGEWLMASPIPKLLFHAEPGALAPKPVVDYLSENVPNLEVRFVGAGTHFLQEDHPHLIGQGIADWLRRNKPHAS
Description: global fit of stopped-flow fluorescence/absorbance and ITC on DmmA

LinB [3] = target: T1, LinB; assay: stopped-flow tryptophan fluorescence after preincubation; type: biochemical; details: 100 mM glycine pH 8.6, 37 °C; slow irreversible inhibition, substrate E-3c
DmmA [4] = target: T2, DmmA; assay: ITC progress curves; type: biochemical
Description: ITC progress curves on DmmA | Z-isomer of substrate 3a binds to the enzyme’s active site and functions as a competitive inhibitor

ITC progress curves = substrate: C[N+](C)(C)Cc1ccc(/N=N/c2cccc(CCl)c2)cc1; assay: ITC progress curves; type: biochemical, Lyngbya majuscula; details: 100 mM glycine pH 8.6, 37 °C

Molecule: C[N+](C)(C)Cc1ccc(/N=N\c2cccc(CCl)c2)cc1 (mixture of isomers) [3c, Z-3c]
stopped-flow tryptophan fluorescence after preincubation (LinB [3]): the inhibition effect of Z-3c was significantly more prominent in the case of LinB

Molecule: COCCOCCOc1ccc(/N=N\c2cccc(CCl)c2)cc1 [3a, Z-3a]
Ki (DmmA [4]): 0.035 ± 0.001 µM

B1: DmmA (Lyngbya majuscula) (protein)
chain: AGVPVAGRAQSQPPLQLPISSEFPFAKRTVEVEGATIAYVDEGSGQPVLFLHGNPTSSYLWRNIIPYVVAAGYRAVAPDLIGMGDSAKPDIEYRLQDHVAYMDGFIDALGLDDMVLVIHDWGSVIGMRHARLNPDRVAAVAFMEALVPPALPMPSYEAMGPQLGPLFRDLRTADVGEKMVLDGNFFVETILPEMGVVRSLSEAEMAAYRAPFPTRQSRLPTLQWPREVPIGGEPAFAEAEVLKNGEWLMASPIPKLLFHAEPGALAPKPVVDYLSENVPNLEVRFVGAGTHFLQEDHPHLIGQGIADWLRRNKPHAS
notes: His-tagged, expressed in E. coli BL21(DE3), Ni-NTA purified; PDB 3U1T for the docking model of the same protein
Km (ITC progress curves): 850 ± 40 µM | kcat (ITC progress curves): 0.50 ± 0.03 s⁻¹

Next, values leading:

Kd (LinB [1]; enzyme-product complex (EP), read-out: K4): 11.6 ± 0.1 µM | Kd (DmmA [2]): 3.55 ± 1.01 µM
Molecule: C[N+](C)(C)Cc1ccc(/N=N/c2cccc(CO)c2)cc1 [3c, E-3c-OH]

Kd (LinB [1]; equilibrium dissociation constant of enzyme-substrate complex, read-out: K1): 7.39 ± 0.03 µM
Molecule: C[N+](C)(C)Cc1ccc(/N=N/c2cccc(CCl)c2)cc1 [3c, E-3c]
